Results as given in patent US9320773B2, “Compounds and therapeutic applications related to inhibition of dendritic cell immunoreceptor (DCIR) activity and signaling events” (priority 2010, dated 2016).

Legend:
[1] = system: HIV-1 NL4-3 in Raji-CD4-DCIR cells; test: HIV-1 binding/entry assay in Raji-CD4-DCIR cells (cell-associated p24 ELISA); type: cell-based; settings: cells pretreated with inhibitor 10 min, pulsed with NL4-3 60 min; result in words
Description: (§1) FIG. 2A: Raji-CD4 and Raji-CD4-DCIR cells were either left untreated or treated with SSG (100 μg/ml) for 10 min at 37° C. Thereafter, cells were pulsed with NL4-3 for 60 min. After three washes with PBS to remove non-adsorbed virus, cell-associated virus was quantified by measuring the p24 content. Data shown correspond to the means±SD of triplicate samples from three combined independent experiments. The asterisk denotes statistically significant data (*, P<0.05; **, P<0.01). FIG. 2B: Cells were either left untransfected or transfected with a sense or antisense oligonucleotide specific for the signalling protein of interest. Next, cells were pulsed with NL4-3 for 60 min. After three washes with PBS to eliminate unbound virus, cell-associated virus was quantified by measuring the p24 content. Data shown correspond to the means±SD of triplicate samples from three combined independent experiments. The asterisk denotes statistically significant data (*, P<0.05; **, P<0.01). After gene silencing, the diminution of the targeted protein was verified by western blots, provided as an insert for each graph.
Where indicated, parental Raji-CD4 cells (DCIR-negative) or Raji-CD4-DCIR transfectants (1×10^6) were pretreated with the indicated amount of a pharmacological inhibitor for 10 min or transfected with sense or antisense oligonucleotides as described below. Cells were then pulsed with NL4-3 (100 ng of p24) for 60 min at 37° C. Next the virus-cell mixture was washed 3 times with PBS to remove unbound virus and resuspended in PBS containing 1% BSA. To assess binding/entry, the p24 content was determined by our in-house ELISA assay^33.
Raji-CD4 and Raji-CD4-DCIR cells (1×10^6 cells) were washed with OptiMEM (Invitrogen Life Technologies) without serum and antibiotics. The phosphorothioate oligodeoxynucleotides (Listed in Table 1) (Invitrogen Life Technologies) were transfected at a final concentration of 10 μM/well^35 using Oligofectamine according to the manufacturer's instructions (Invitrogen Life Technologies). Silencing efficiency was monitored by western blot analysis.

[2] = system: HIV-1 NL4-3 in Raji-CD4 cells; test: HIV-1 binding/entry assay in parental Raji-CD4 cells (DCIR-negative); type: cell-based; settings: pretreated with inhibitor 10 min, result in words
Description: as §1, with “After gene silencing, the diminution of the targeted protein was verified by western blots, provided as an insert for each graph.” left out
Where indicated, parental Raji-CD4 cells (DCIR-negative) or Raji-CD4-DCIR transfectants (1×10^6) were pretreated with the indicated amount of a pharmacological inhibitor for 10 min or transfected with sense or antisense oligonucleotides as described below. […] To assess binding/entry, the p24 content was determined by our in-house ELISA assay^33.

[3] = system: DCIR expression in CD4+ T cells; test: DCIR expression in CD4+ T cells after H2O2 or other apoptosis inducers (flow cytometry); type: cell-based, human
Description: Next, DCIR expression was assessed by flow cytometry. Data shown represent the ratio of DCIR expression over basal expression. The ratio is calculated from the means±SD of triplicate samples from three independent experiments. […] FIG. 16A: […] Expression of DCIR is shown as a dotted line, whereas the continuous line represents staining obtained with an isotype-matched irrelevant control Ab. Data shown correspond to a single experiment representative of 3 independent experiments. FIG. 16B: […] Thereafter, DCIR surface expression and caspase activation were monitored by flow cytometric analysis using a double-staining method consisting of FITC-VAD-FMK followed by the R-PE-conjugated anti-DCIR. Data shown correspond to a single experiment representative of 4 independent experiments. Cell surface expression of DCIR was monitored by flow cytometric analysis (Epics ELITE ESP, Coulter Electronics, Burlington, Canada). […] After washing, the cells were incubated with PE-labeled anti-DCIR (0.25 μg) for 45 min at 4° C. and then washed twice with PBS and 0.5% BSA. Non-specific staining was determined by using an isotype-matched irrelevant control antibody. After two final washes with PBS, cells were fixed in 2% paraformaldehyde for 30 min and analyzed.

CD4+ T cells = test: Cell toxicity / viability of CD4+ T cells; type: cell-based, human; settings: mitogen-stimulated CD4+ T cells; data not shown
[4] = system: HIV-1 NL4-3 in CD4+ T cells
Description: Target CD4^+ T cells (1×10^6) were treated for 16 h with H2O2 (30 μM) to induce surface expression of DCIR. FIG. 17A: Cells were next exposed to NL4-3 (100 ng of p24) for 1 h at 37° C., extensively washed to remove unabsorbed virons before assessing the p24 content. FIG. 17B: Cells were first incubated with NL4-3 (100 ng of p24) for 2 h at 37° C., washed extensively to remove input virus and cultured in complete culture RPMI-1640 medium supplemented with rhIL-2 for the indicated number of days. Cell-free supernatants were collected and assayed for the p24 content. FIG. 17C: Cells were exposed to NL4-3 (100 ng of p24) for 2 h at 37° C., next washed extensively to remove input virus, and finally co-cultured with autologous CD4^+ T cells in complete culture RPMI-1640 medium supplemented with rhIL-2 for the indicated number of days. Cell-free supernatants were collected and assayed for the p24 content. Virus production at day 2 is depicted in the small inserts (FIGS. 17B and C). FIG. 17D: Cells were exposed to NL4-3 (100 ng of p24) for 2 h at 37° C., washed extensively to remove input virus, and maintained in complete culture medium supplemented with rhIL-2 for 3 days. Next, DCIR-negative and -positive cells (used as transmitter cells) were isolated with magnetic beads and co-cultured with uninfected CD4^+ T cells (used as recipient cells). […]

DC-SIGN = settings: induction of apoptosis by H2O2; data not shown
CD4 = settings: induction of apoptosis by H2O2; data not shown
[5] = system: DCIR expression in CD4+ T cells; test: HIV-1-mediated induction of DCIR expression in CD4+ T cells (flow cytometry); type: cell-based, human; settings: cells pre-treated before virus infection, 3 days; result in words
Description: Mitogen-activated CD4^+ T cells (1×10^6) were first either left untreated or treated for 1 h with the caspase inhibitor Z-VAD-FMK (50 nM), after which HIV-1 was added (100 ng of p24), where indicated. DCIR expression was monitored 3 days later by flow cytometry. Data shown represent the means±SD of triplicate samples from three independent experiments.
Cells (1×10^6) were first either left untreated or treated for 1 h with NAC, after which HIV-1 (100 ng of p24) was added. DCIR expression was monitored 3 days later by flow cytometry. Expression of DCIR is shown as a dotted line, whereas the continuous line represents staining obtained with an isotype-matched irrelevant control Ab. Data shown correspond to a single experiment representative of 3 independent experiments.
Cell surface expression of DCIR was monitored by flow cytometric analysis (Epics ELITE ESP, Coulter Electronics, Burlington, Canada). Cells (1×10^6 cells) were incubated for 30 min with a pool of human serum to block the unspecific binding. After washing, the cells were incubated with PE-labeled anti-DCIR (0.25 μg) for 45 min at 4° C. and then washed twice with PBS and 0.5% BSA. Non-specific staining was determined by using an isotype-matched irrelevant control antibody. After two final washes with PBS, cells were fixed in 2% paraformaldehyde for 30 min and analyzed.

[6] = system: human primary CD4+ T cells; test: Apoptosis of HIV-1-infected and bystander CD4+ T cells (FITC-VAD-FMK staining); type: cell-based; settings: NL4-3-IRES-HSA infected CD4+ T cells; data not shown
Text: The HIV-1-mediated induction of apoptosis in both infected and bystander CD4^+ T cells is a well-described phenomenon. The peak of apoptosis is observed usually after 2 to 3 days, the same time frame in which we detected the HIV-1-dependent induction of DCIR. Therefore, we next assessed whether there might be a connection between the virus-induced DCIR expression and apoptosis. We initially assessed the ability of NL4-3-IRES-HSA reporter virus to drive apoptosis in CD4^+ T cells using FITC-VAD-FMK staining. This fluorochrome-labeled pan-caspase inhibitor is a specific and convenient-to-use marker of apoptotic cells, which can identify very early events of apoptosis associated with caspase activation (i.e. pre-apoptotic cells). Our studies indicate that NL4-3-IRES-HSA virions can potently mediate apoptosis in human primary CD4^+ T cells (data not shown). […] To establish a link between DCIR expression and apoptosis following HIV-1 infection, we carried out a series of investigations with the broad-spectrum caspase inhibitor Z-VAD-FMK [94].

O.O.O.O.O.O.O.O.O.O=C([O-])[C@@H]1[O][Sb]2([O-])([O][Sb]34([OH])[O][C@H]([C@H](O)CO)[C@H]([O]3)[C@H](C(=O)[O-])[O]4)[O][C@H]([C@H](O)CO)[C@@H]1[O]2.[Na+].[Na+].[Na+] [SSG, sodium stibogluconate] was tested, and the HIV-1 binding/entry [1] was “decreases” and the HIV-1 binding/entry [2] was “no similar effect”.

With OO [H2O2, Hydrogen peroxide] the DCIR expression ([3]; CD4+ T cells treated with inducer, H2O2 20 to 60 μM, result in words) was “dose-dependent increased”, the “DCIR expression in activated CD4+ T cells” value ([3]; H2O2-treated cells (30 μM, 16 h), n=3) was 21.4±3.4% and the “apoptotic cells also positive for DCIR” value ([3]; H2O2 treatment, FITC-VAD-FMK and anti-DCIR double staining, n=3) was 12.2±3.2%. The “doses at which cell viability was reduced” value (CD4+ T cells) was no less than 45 µM, the virus production [4] was “statistically significant increase” and the “virus binding and entry, p24” value ([4]; CD4+ T cells exposed to H2O2 (30 μM, 16 h), 3.8±0.8 without H2O2) was 12.5±1.8 ng/ml of p24. The “surface expression of DC-SIGN” value (DC-SIGN) was “not modulated” and the “surface expression of CD4” value (CD4) was “not modulated”.

With O=C1Nc2ccc(Cl)cc2[C@@](C#CC2CC2)(C(F)(F)F)O1 [EFV, efavirenz] the “HIV-1-mediated DCIR expression” value [5] was “reduced significantly” and the “percentages of apoptotic cells in virus-infected and bystander cells” value [6] was “significantly reduced”.
